Test [1] addresses recombinant human enteropeptidase (Homo sapiens (Human), UniProt P98073). The test can be described thus: Measurement of enteropeptidase inhibitory activity. In kind it is biochemical. Particulars: substrate Gly-Asp-Asp-Asp-Asp-Lys-β-Naphtylamide, Tris-HCl pH 8.0, Dixon plot. On the procedure:
Measurement of Enteropeptidase Inhibitory Activity
Using a 96 well plate (#3915, Costar), a test compound (25 μL), 400 mM Tris-HCl buffer (pH 8.0, 25 μL) and 0.5 mg/mL fluorescence enzyme substrate (Gly-Asp-Asp-Asp-Asp-Lys-β-Naphtylamide, 25 μL) were mixed, and recombinant human enteropeptidase (R&D Systems, Inc., 25 μL) was added. Using a fluorescence plate reader fmax (Molecular Devices, Inc.), the reaction rate was measured from the time-course changes at excitation wavelength 320 nm and fluorescence wavelength 405 nm. The Ki value was calculated from the concentration of the test compound, reciprocal of reaction rate, and Km value of the enzyme substrate, and by using Dixon plot.

The next test deals with human trypsin (Homo sapiens, UniProt P07477). The test can be described thus: Measurement of trypsin inhibitory activity. In kind it is biochemical. Particulars: substrate Boc-Phe-Ser-Arg-AMC, Tris-HCl pH 8.0, Dixon plot. On the procedure:
Measurement of Trypsin Inhibitory Activity
Using a 96 well plate (#3915, Costar), a test compound (25 μL) was mixed with 20 μM fluorescence enzyme substrate (Boc-Phe-Ser-Arg-AMC, 50 μL) mixed with 200 mM Tris-HCl buffer (pH 8.0), and human trypsin (Sigma, 25 μL) was added. Using a fluorescence plate reader fmax (Molecular Devices, Inc.), the reaction rate was measured from the time-course changes at excitation wavelength 355 nm and fluorescence wavelength 460 nm. The Ki value was calculated from the concentration of the test compound, reciprocal of reaction rate, and Km value of the enzyme substrate, and by using Dixon plot.

Counter-ions that a name gives are not always drawn.

Sequence of recombinant human enteropeptidase (P98073 whole entry): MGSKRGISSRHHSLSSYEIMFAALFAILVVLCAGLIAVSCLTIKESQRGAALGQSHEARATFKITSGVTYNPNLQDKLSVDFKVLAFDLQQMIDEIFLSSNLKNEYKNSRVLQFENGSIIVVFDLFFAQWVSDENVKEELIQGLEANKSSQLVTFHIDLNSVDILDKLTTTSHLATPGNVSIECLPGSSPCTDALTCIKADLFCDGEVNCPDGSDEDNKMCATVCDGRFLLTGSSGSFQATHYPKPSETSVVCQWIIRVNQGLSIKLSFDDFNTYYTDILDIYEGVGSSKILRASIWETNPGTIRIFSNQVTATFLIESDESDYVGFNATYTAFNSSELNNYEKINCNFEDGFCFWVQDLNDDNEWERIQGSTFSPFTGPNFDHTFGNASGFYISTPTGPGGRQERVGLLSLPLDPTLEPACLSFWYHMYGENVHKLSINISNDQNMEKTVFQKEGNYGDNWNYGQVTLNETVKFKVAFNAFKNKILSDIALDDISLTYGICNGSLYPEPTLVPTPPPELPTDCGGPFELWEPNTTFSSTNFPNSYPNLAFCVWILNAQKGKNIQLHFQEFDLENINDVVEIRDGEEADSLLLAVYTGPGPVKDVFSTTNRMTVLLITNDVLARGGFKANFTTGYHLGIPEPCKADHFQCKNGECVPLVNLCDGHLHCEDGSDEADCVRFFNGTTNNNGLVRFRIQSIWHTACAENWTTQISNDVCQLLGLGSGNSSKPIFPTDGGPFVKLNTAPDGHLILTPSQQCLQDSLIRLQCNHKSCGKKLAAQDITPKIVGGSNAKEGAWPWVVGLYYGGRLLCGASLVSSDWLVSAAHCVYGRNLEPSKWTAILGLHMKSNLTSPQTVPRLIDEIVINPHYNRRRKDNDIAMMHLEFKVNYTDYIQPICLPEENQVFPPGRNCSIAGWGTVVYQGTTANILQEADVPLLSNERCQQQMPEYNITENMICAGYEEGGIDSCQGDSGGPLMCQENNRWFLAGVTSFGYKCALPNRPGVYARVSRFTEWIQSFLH

Usually Ki stands for a measure of affinity in units of concentration, obtained from inhibition or displacement. As for `N=C(N)c1ccc(OC(=O)c2ccc(CC3(C(=O)N[C@@H](CC(=O)O)C(=O)O)CCC3)s2)c(F)c1` [Compound 1, N-[1{5-(4-amidino-2-fluorophenoxycarbonyl)thiophen-2-ylmethyl}-cyclobutylcarbonyl]-1-aspartic acid trifluoroacetic acid salt], the figures for the inhibition constant (Ki) (in test [1]; at human trypsin) were 0.14 nM and 0.61 nM, respectively.
The corresponding values for `N=C(N)c1ccc(OC(=O)c2ccc(CC3(C(=O)N[C@@H](CC(=O)O)C(=O)O)CCCC3)s2)c(F)c1` [Compound 2, N-{1-[5-(4-amidino-2-fluorophenoxycarbonyl)thiophen-2-ylmethyl]-2-cyclopentylcarbonyl}-1-aspartic acid trifluoroacetic acid salt] are 0.73 nM and 4.1 nM.
The corresponding values for `CC(C)(Cc1ccc(C(=O)Oc2ccc(C(=N)N)cc2F)s1)C(=O)N[C@@H](CO)C(=O)O` [Compound 4] are 0.46 nM and 0.75 nM.
Consider `C=CCN(CC(=O)O)C(=O)C(C)(C)Cc1ccc(C(=O)Oc2ccc(C(=N)N)cc2F)s1` [Compound 5], for which the inhibitory constant (Ki) in test [1] amounted to 0.24 nM; on human trypsin, 0.5 nM.
For the molecule `CC(C)(Cc1ccc(C(=O)Oc2ccc(C(=N)N)cc2F)s1)C(=O)NC(C)(C)C(=O)O` [Compound 6], the Ki worked out at 0.69 nM in test [1] and 0.95 nM at human trypsin.
The corresponding values for `CN(CC(=O)O)C(=O)C(C)(C)Cc1ccc(C(=O)Oc2ccc(C(=N)N)cc2F)s1` [Compound 7] are 0.41 nM and 1.33 nM.
The corresponding values for `CC(C)(Cc1ccc(C(=O)Oc2ccc(C(=N)N)cc2F)s1)C(=O)N1CCC[C@H]1C(=O)O` [Compound 8] are 0.87 nM and 1.69 nM.
For `CC(C)[C@H](NC(=O)C(C)(C)Cc1ccc(C(=O)Oc2ccc(C(=N)N)cc2F)s1)C(=O)O` [Compound 9, N-{3-[5-(4-amidino-2-fluoro-phenoxycarbonyl)thiophen-2-yl]-2,2-dimethylpropionyl}-1-valine hydrochloride], in that order: 0.79 nM and 2.02 nM.
For the molecule `CCC(CC)(Cc1ccc(C(=O)Oc2ccc(C(=N)N)cc2F)s1)C(=O)N[C@@H](CO)C(=O)O` [Compound 11, N-{3-[5-(4-amidino-2-fluoro-phenoxycarbonyl)thiophen-2-yl]-2,2-diethylpropionyl}-L-serine hydrochloride], the inhibition constant (Ki) stood at 0.41 nM in test [1] and 1.87 nM at human trypsin.
Regarding `CCC(CC)(Cc1ccc(C(=O)Oc2ccc(C(=N)N)cc2F)s1)C(=O)N[C@H](CO)C(=O)O` [Compound 12], the Ki in test [1] was found to be 0.94 nM; on human trypsin it was 1.78 nM.
Take `CCC(CC)(Cc1ccc(C(=O)Oc2ccc(C(=N)N)cc2F)s1)C(=O)NCCC(=O)O` [Compound 14]: the Ki in test [1] was 0.99 nM; on human trypsin it was 2.5 nM.
For `CCC(CC)(Cc1ccc(C(=O)Oc2ccc(C(=N)N)cc2F)s1)C(=O)N[C@H](C(=O)O)C(C)O` (stereo partly drawn) [Compound 15], in that order: 0.84 nM and 1.74 nM.
As to `CCC(CC)(Cc1ccc(C(=O)Oc2ccc(C(=N)N)cc2F)s1)C(=O)N1CCC[C@H]1C(=O)O` [Compound 17], the inhibition constant (Ki) in test [1] stood at 1.69 nM; on human trypsin, 6.38 nM.
The corresponding values for `CCC(CC)(Cc1ccc(C(=O)Oc2ccc(C(=N)N)cc2F)s1)C(=O)O` [Compound 18, 3-[5-(4-amidino-2-fluorophenoxycarbonyl)thiophen-2-yl]-2,2-diethylpropanoic acid trifluoroacetic acid salt] are 1.24 nM and 2.49 nM.
The corresponding values for `CCC(CC)(Cc1ccc(C(=O)Oc2ccc(C(=N)N)cc2F)s1)C(=O)N[C@@H](CC(=O)O)C(=O)O` [Compound 19] are 0.33 nM and 0.82 nM.
The corresponding values for `CCCN(CC(=O)O)C(=O)C(CC)(CC)Cc1ccc(C(=O)Oc2ccc(C(=N)N)cc2F)s1` [Compound 20] are 2.61 nM and 7.91 nM.
As to `CCC(CC)(Cc1ccc(C(=O)Oc2ccc(C(=N)N)cc2F)s1)C(=O)N(C)CC(=O)O` [Compound 21, N-{3-[5-(4-amidino-2-fluoro-phenoxycarbonyl)thiophen-2-yl]-2,2-diethylpropionyl}-sarcosine hydrochloride], the results for the inhibitory constant (Ki) (in test [1]; at human trypsin) were 0.88 nM and 1.76 nM, respectively.
On to `CCC(CC)(Cc1ccc(C(=O)Oc2ccc(C(=N)N)cc2F)s1)C(=O)N1CCC[C@@H]1C(=O)O` [Compound 22], for which the results for the Ki (in test [1]; on human trypsin) were 1 nM and 3.57 nM, respectively.
Take `CCC(CC)(Cc1ccc(C(=O)Oc2ccc(C(=N)N)cc2F)s1)C(=O)N[C@H](CC(=O)O)C(=O)O` [Compound 25]: the inhibitory constant (Ki) in test [1] was 0.26 nM; at human trypsin it was 1.04 nM.
For the molecule `CC(C)(Cc1ccc(C(=O)Oc2ccc(C(=N)N)cc2F)s1)C(=O)N1CCC(C(=O)O)CC1` [Compound 26], the Ki in test [1] turned out to be 1.33 nM; at human trypsin it was 3.1 nM.
For `CCC(CC)(Cc1ccc(C(=O)Oc2ccc(C(=N)N)cc2F)s1)C(=O)N[C@@H](C)C(=O)O` [Compound 27], in that order: 0.73 nM and 1.67 nM.
Take `CC(C)(Cc1ccc(C(=O)Oc2ccc(C(=N)N)cc2F)s1)C(=O)N1CC[C@@H](C(=O)O)C1` [Compound 33]: the Ki in test [1] amounted to 1.02 nM; at human trypsin it was 2 nM.
Take `CC(C)(Cc1ccc(C(=O)Oc2ccc(C(=N)N)cc2F)s1)C(=O)N[C@H](C(=O)O)C1CCCCC1` [Compound 35]: the figures for the Ki (in test [1]; at human trypsin) were 2.56 nM and 3.04 nM, respectively.
The corresponding values for `CC(C)(Cc1ccc(C(=O)Oc2ccc(C(=N)N)cc2F)s1)C(=O)N[C@@H](C(=O)O)C1CCCCC1` [Compound 36] are 4.7 nM and 3.07 nM.
For `CC(C)(Cc1ccc(C(=O)Oc2ccc(C(=N)N)cc2F)s1)C(=O)N[C@H](C(=O)O)c1ccccc1` [Compound 37], in that order: 0.96 nM and 1.51 nM.
For `CC(C)(Cc1ccc(C(=O)Oc2ccc(C(=N)N)cc2F)s1)C(=O)N[C@@H](C(=O)O)c1ccccc1` [Compound 38], in that order: 0.97 nM and 1.45 nM.
In the case of `CC(C)(Cc1ccc(C(=O)Oc2ccc(C(=N)N)cc2F)s1)C(=O)Nc1cccnc1` [Compound 39], the Ki in test [1] came out at 7.56 nM; at human trypsin, 3.6 nM.
The corresponding values for `CC(C)(Cc1ccc(C(=O)Oc2ccc(C(=N)N)cc2F)s1)C(=O)Nc1ccc[nH]c1=O` [Compound 40] are 6.66 nM and 4.54 nM.
For `CCC(CC)(Cc1ccc(C(=O)Oc2ccc(C(=N)N)cc2F)s1)C(=O)N[C@@H](CCC(N)=O)C(=O)O` [Compound 42], in that order: 1.69 nM and 3.88 nM.
For `COc1ccc(NC(=O)C(C)(C)Cc2ccc(C(=O)Oc3ccc(C(=N)N)cc3F)s2)cn1` [Compound 45], in that order: 4.13 nM and 3.36 nM.
With `CC(C)(Cc1ccc(C(=O)Oc2ccc(C(=N)N)cc2F)s1)C(=O)N1CC(F)(F)C1` [Compound 46], the inhibition constant (Ki) in test [1] came out at 5.27 nM; on human trypsin it was 3.89 nM.
For `CCC(CC)(Cc1ccc(C(=O)Oc2ccc(C(=N)N)cc2F)s1)C(=O)Nc1ccc(CC(=O)O)cc1` [Compound 48], in that order: 2.41 nM and 3.35 nM.
The corresponding values for `CC(C)(Cc1ccc(C(=O)Oc2ccc(C(=N)N)cc2F)s1)C(=O)N1CCc2ccc(C(=O)O)cc2C1` [Compound 50] are 3.46 nM and 3.49 nM.
The corresponding values for `COc1ncccc1NC(=O)C(C)(C)Cc1ccc(C(=O)Oc2ccc(C(=N)N)cc2F)s1` [Compound 51] are 3.75 nM and 1.87 nM.
On to `CCC(CC)(Cc1ccc(C(=O)Oc2ccc(C(=N)N)cc2F)s1)C(=O)NCCC[C@H](N)C(=O)O` [Compound 52], for which the Ki in test [1] came out at 5.53 nM; on human trypsin, 5.78 nM.
The corresponding values for `CC(C)(Cc1ccc(C(=O)Oc2ccc(C(=N)N)cc2F)s1)C(=O)N1C[C@@H]1C(=O)O` [Compound 54] are 1.76 nM and 1.53 nM.
For `CC(C)(Cc1ccc(C(=O)Oc2ccc(C(=N)N)cc2F)s1)C(=O)NC(CCC(=O)O)(CCC(=O)O)CCC(=O)O` [Compound 58], in that order: 0.71 nM and 1.59 nM.
The corresponding values for `CC(C)(Cc1ccc(C(=O)Oc2ccc(C(=N)N)cc2F)s1)C(=O)Nc1cc(C(=O)O)cc(C(=O)O)c1` [Compound 59] are 0.31 nM and 0.49 nM.
On to `CC(C)(Cc1ccc(C(=O)Oc2ccc(C(=N)N)cc2F)s1)C(=O)N1C[C@H]1C(=O)O` [Compound 61], for which the Ki in test [1] stood at 1.13 nM; at human trypsin, 0.96 nM.
`CC(C)(Cc1ccc(C(=O)Oc2ccc(C(=N)N)cc2F)s1)C(=O)NCCc1nnn[nH]1` [Compound 64]: the Ki in test [1] came out at 0.53 nM; on human trypsin, 1.6 nM.
Take `CCC(CC)(Cc1ccc(C(=O)Oc2ccc(C(=N)N)cc2F)s1)C(=O)Nc1cc(C(=O)O)cc(C(=O)O)c1` [Compound 66]: the Ki was 0.71 nM in test [1] and 1.58 nM at human trypsin.
For `CCC(CC)(Cc1ccc(C(=O)Oc2ccc(C(=N)N)cc2F)s1)C(=O)Nc1cc(C(=O)O)cc(C(=O)OC)c1` [Compound 67], in that order: 3.73 nM and 4.4 nM.
